The assay deals with cardiomyocytes (embryoid bodies) from double knock-in human iPS cell lines (mCherry at TNNI3 locus). The assay can be described thus: Experimental Example 2: mCherry expression in TNNI1+ cells by flow cytometry. The format is cell-based. The following applies: 3 μM, 8th-16th day, DMSO control 7.8. As for the experimental part:
For detection of cardiomyocyte maturation, double knock-in human iPS cell lines, in which reporter protein sequences, EmGFP (Sequence Number 1) and mCherry (Sequence Number 2) were inserted into gene loci for TNNI1 and TNNI3, respectively, were prepared (the human iPS cells were prepared from episomal vector (loaded gene; OCT3/4, KLF4, SOX2, L-MYC, LIN28, mouse p53DD) using PBMC (LP_167, Sample ID: 20130318) purchased from CTL (reference literature; Okita K, et al. Stem Cells. 2012 Nov. 29. doi: 10.1002/stem.1293)).
The maintenance culture of the above-mentioned reporter iPS cell lines was carried out by a conventional method (Okita K, et al. Stem Cells. 2012 Nov. 29. doi: 10.1002/stem.1293).
For differentiation induction into cardiomyocytes, the reporter iPS cell lines were treated with 0.5×TrypLE select (Life Technologies, diluted in 1/2 with 0.5 mM EDTA/PBS) for 4 to 5 minutes, and the cells were exfoliated using a cell scraper (IWAKI), and then dissociated into the single cell by pipetting. The medium was removed by centrifugation (1,000 rpm, 5 min), and the obtained cells were suspended in a medium prepared by adding 1% L-glutamine, transferrin 150 μg/mL, ascorbic acid 50 μg/mL (Sigma), monothioglycerol […], 10 μM Rock inhibitor (Y-27632), 2 ng/mL BMP4 (R&D) and 0.5% Matrigel (Growth Factor Reduced) to StemPro-34 SFM (ThermoFisher) in a 6 well-plate by 2×10^6 cells/1.5 mL/well, and then subjected to static culture at 37° C., under 5% oxygen condition to form embryoid bodies (0 day).
Next day (1st day), a medium prepared by adding 1% L-glutamine, transferrin 150 μg/mL, ascorbic acid 50 μg/mL (Sigma), monothioglycerol 4><10^−4 M, 1.8 μL (concentration 12 ng/mL) of 10 μg/mL activin A, […] (concentration 10 ng/mL) of 10 μg/mL bFGF and 2.7 μL (concentration 18 ng/mL) of 10 μg/mL BMP4 to 1.5 mL of StemPro-34 SFM (ThermoFisher) was added to each well of the 6 well plate containing the embryoid bodies to adjust the volume combined with the 0 day's medium to final 3 mL (activin A: 6 ng/ml, bFGF: 5 ng/ml, BMP4: 10 ng/ml), and the embryoid bodies were cultured at 37° C. for additional 2 days, under 5% oxygen condition.
Then (3rd day), the 6 well plate containing the embryoid bodies was inclined, and then left to stand for 1 to 2 minutes until the embryoid bodies were precipitated at the edges of the wells, and the supernatant was aspirated so as not to suck the embryoid bodies. Then, IMDM (ThermoFisher) medium was added to each well, and, as above, the plate was inclined, and then left to stand for 1 to 2 minutes, and the supernatant was aspirated so as not to suck the embryoid bodies. A medium prepared by adding 1% L-glutamine, transferrin 150 μg/mL, ascorbic acid 50 μg/mL (Sigma), monothioglycerol 4×10^−4 M, 10 ng/mL VEGF, 1 μM IWP-3, 0.6 μM dorsomorphin and 5.4 μM SB431542 to 3 mL of StemPro-34 SFM (ThermoFisher) was added to each well of the 6 well plate, and then the embryoid bodies were cultured at 37° C. for 3 days, under 5% oxygen condition.
Then (6th day), the 6 well plate containing the embryoid bodies was inclined, and then left to stand for 1 to 2 minutes until the embryoid bodies were precipitated at the edges of the wells, and the supernatant was aspirated so as not to suck the embryoid bodies. […]

In the case of `O=C1c2ccc(N3CCOCC3)cc2CN1c1ccc2[nH]c(-c3ccc(Br)cc3)nc2c1` [Example 8, 2-(2-(4-bromophenyl)-1H-benzimidazol-5-yl)-5-(morpholin-4-yl)isoindolin-1-one], the “mCherry+ (%)” value turned out to be 61.0%.

(Values after patent US11401264B2, “Heterocyclic compound” (Orizuru Therapeutics, Inc., priority 2018, dated 2022).)
